Measured values: patent US20250282770A1, “BIOLUMINESCENT PROBES TO TRACK STEM CELLS IN VIVO” (THE BOARD OF TRUSTEES OF THE UNIVERSITY OF ILLINOIS, priority 2024, published 2025)

Columns and labels:
β-Galactosidase = target: T1, β-Galactosidase (Escherichia coli, UniProt P00722); assay: Stability of AlDeLuc to β-Galactosidase; type: biochemical; conditions: 10 μM; 1 unit of β-Gal
T1 construct: purchased Millipore-Sigma Aldrich
Description: Exploring the Stability of AlDeLuc to β-Galactosidase. The stability of AlDeLuc (10 μM) against β-Galactosidase (β-gal) was determined using a black 96-well plate and monitored using the IVIS imaging system. In a 96-well plate was added PBS (pH 7.4), β-gal (1 unit), and AlDeLuc. As a positive control to the same plate, was added PBS (pH 7.4), ALDH1A1 (0.4 μM), NAD^+ (1 mM), and acid activated AlDeLuc. Immediately after AlDeLuc was added, ATP-MgSO4 (45 μL, prepared by mixing 17.78 mM ATP-Mg and 35.56 mM MgSO4 in a 1:1 ratio in PBS buffer) and luciferase (5 μL, 1 mg/mL in PBS containing 10% glycerol) were administered to initiate bioluminescence production. Light was collected promptly after mixing, and the total luminescent counts were measured for both conditions. The total volume of each well was 200 μL with 0.1% DMSO. All data reported as the mean±standard deviation (n=4).

[1] = Stability of AlDeLuc at acidic, neutral and alkaline pHs; type: physicochemical; conditions: 2 μM, then ALDH1A1 and luciferase
Description: Stability of AlDeLuc at Acidic, Neutral and Alkaline pHs. The stability of AlDeLuc (2 μM) to acidic, neutral and alkaline conditions were investigated in a black 96-well plate and monitored using the IVIS imaging system. AlDeLuc was incubated in 1 M HCl (acidic), 1 M NaCl (neutral, pH=7), or 1 M NaOH (alkaline) for one hour, neutralized, and diluted with 0.1 M potassium phosphate buffer (pH 7.4). To the black well-plate was added PBS (pH 7.4), NAD^+ (1 mM), ALDH1A1 (0.4 μM), and either the acidic-, neutral-, or alkaline-treated AlDeLuc. Immediately after, each well was treated with ATP-MgSO4 (45 μL, prepared by mixing 17.78 mM ATP-Mg and 35.56 mM MgSO4 in a 1:1 ratio in PBS buffer) and luciferase (5 μL, 1 mg/mL in PBS containing 10% glycerol) to initiate bioluminescence production. Light was collected immediately after mixing, and the signal enhancement was determined relative to control wells not treated with AlDeLuc. The total volume of each well was 200 μL (PBS (pH 7.4) with 0.2% DMSO). All data reported as the mean±standard deviation.

[2] = test system: 4T1 murine mammary carcinoma cells; assay: AlDeLuc activation in 4T1 cells, lysate bioluminescence; type: cell-based; conditions: 4T1 cell lysates; 100 μM, 60 minutes
Description: Validation of ALDH-Mediated Activation of AlDeLuc in Murine Breast Cancer Cells. 4T1 cells were cultured in T75 culture flasks. After two days, cells had become ˜90% confluent. An aliquot of RPMI 1640 media (1 mL) was removed from each flask and replaced with either DEAB ([…], 0.5% DMSO) or vehicle (0.5% DMSO). After incubation for one hour, the solutions were aspirated, washed with PBS, and resuspended in fresh RPMI 1640 media (9 mL). Each flask was then incubated with the AlDeLuc (100 μM) and DEAB (500 μM) or AlDeLuc (100 μM) and vehicle (DMSO), each with a final concentration of 1% DMSO. After 60 minutes, this solution was aspirated, washed with fresh PBS, and detached from the culture flasks. The cells were then transferred to a 15 mL centrifuge tube and pelleted at 1000 rpm for 5 minutes at room temp. The cells were resuspended in PBS along with 10% protease inhibitor solution (1 protease inhibitor mini tablet per 10 mL of PBS, Pierce, Thermo Fisher Scientific) and sonicated on ice for 2.5 minutes (pulse 01, 01, 40%). The cell debris was removed via centrifugation and the supernatant was plated ([…]) into a 96-well plate (n=4 for each condition). […] ROIs were drawn around each well and the signal intensity was quantified using the Living Image Analysis software.

[3] = test system: A549 human lung carcinoma cells; assay: AlDeLuc activation in A549 cells, lysate bioluminescence; type: cell-based
Description: Validation of ALDH-Mediated Activation of AlDeLuc in Human Lung Cancer Cells. A549 cells were cultured in T75 culture flasks. After two days, cells had become ˜90% confluent. An aliquot of HAMS FK12 media (1 mL) was removed from each flask and replaced with either disulfiram (DSF) (100 μM, 0.5% DMSO) or vehicle (0.5% DMSO). After incubation for one hour, the solutions were aspirated, the cells were washed with PBS, and resuspended in fresh HAMS FK12 media (9 mL). Each flask was then incubated with the AlDeLuc such that the final concentration of the probe is 100 µM and 1% DMSO. After 60 minutes this solution was aspirated, washed with fresh PBS, and detached from the culture flasks. The cells were then transferred to a 15 mL centrifuge tube and pelleted at 1000 rpm for 5 minutes at room temp. The cells were resuspended in PBS along with 10% protease inhibitor solution (1 protease inhibitor mini tablet per 10 mL of PBS, Pierce, Thermo Fisher Scientific) and sonicated on ice for 2.5 minutes (pulse 01, 01, 40%). […] ROIs were drawn around each well and the signal intensity was quantified using the Living Image Analysis software.
Determining Sensitivity of AlDeLuc by Cell Concentration Changes. […] ROIs were drawn around each well and the signal intensity was quantified using the Living Image Analysis software.

T1 sequence (P00722 2-1024): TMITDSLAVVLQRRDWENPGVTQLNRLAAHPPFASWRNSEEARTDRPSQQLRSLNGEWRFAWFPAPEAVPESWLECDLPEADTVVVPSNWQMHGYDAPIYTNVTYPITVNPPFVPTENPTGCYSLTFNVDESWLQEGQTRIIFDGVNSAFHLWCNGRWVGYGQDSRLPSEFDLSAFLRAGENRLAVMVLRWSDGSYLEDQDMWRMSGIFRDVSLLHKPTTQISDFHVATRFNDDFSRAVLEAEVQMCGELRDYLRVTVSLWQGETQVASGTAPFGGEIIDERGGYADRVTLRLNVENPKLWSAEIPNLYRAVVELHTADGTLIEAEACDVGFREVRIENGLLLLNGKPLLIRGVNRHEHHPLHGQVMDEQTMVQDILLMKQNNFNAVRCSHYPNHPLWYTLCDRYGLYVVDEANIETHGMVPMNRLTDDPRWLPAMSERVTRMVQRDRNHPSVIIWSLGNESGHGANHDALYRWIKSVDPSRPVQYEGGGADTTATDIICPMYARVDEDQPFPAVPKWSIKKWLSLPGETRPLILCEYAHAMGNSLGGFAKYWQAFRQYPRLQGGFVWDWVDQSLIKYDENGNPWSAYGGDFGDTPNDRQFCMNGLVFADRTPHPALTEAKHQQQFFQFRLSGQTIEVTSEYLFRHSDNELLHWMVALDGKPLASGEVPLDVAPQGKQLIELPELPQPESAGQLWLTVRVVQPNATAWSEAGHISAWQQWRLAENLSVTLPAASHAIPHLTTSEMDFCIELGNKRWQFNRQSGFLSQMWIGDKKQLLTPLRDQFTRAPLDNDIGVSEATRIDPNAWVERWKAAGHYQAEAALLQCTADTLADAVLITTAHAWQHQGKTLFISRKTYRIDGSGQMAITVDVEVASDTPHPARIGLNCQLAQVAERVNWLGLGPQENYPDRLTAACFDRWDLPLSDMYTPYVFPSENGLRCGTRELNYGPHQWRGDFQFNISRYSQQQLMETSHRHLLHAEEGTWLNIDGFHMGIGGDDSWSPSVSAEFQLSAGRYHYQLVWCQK

SMILES: CCN(CC)c1ccc2nc(C3=N[C@@H](C(OC)OC)CS3)sc2c1 [AlDeLuc, (S)-2-(4-(dimethoxymethyl)-4,5-dihydrothiazol-2-yl)-N,N-diethylbenzo[d]thiazol-6-amine]
- stability of acetal (β-Galactosidase): completely stable
- bioluminescence (acetal unmasking) ([1]; 1 M NaCl (neutral) one hour): no bioluminescence
- bioluminescence (acetal unmasking) ([1]; 1 M NaOH (alkaline) one hour): no bioluminescence
- increase in bioluminescence compared to blank controls [2]: 42 fold
- bioluminescence intensity increase ([3]; 3.6×10^6 A549 cells, 100 μM, 60 min): 56 fold
- light emission relative to vehicle controls ([3]; ~1.25×10^5 A549 cells, 20 μM, one hour): 22.1 fold
